Experimental data from patent publication US4173629A, “Antibiotic S 31794/F-1” (Sandoz Ltd., priority 1975, dated 1979).
Converted amounts (≈) assume the structure as drawn. *1 amine or outer side, *2 acyl side, *3 side chain or, on linkers, in order; H or OH if unused. Where a SMILES comes first, the peptide text is derived from it. Bridges are numbered along the chain shown (N, C = ends). [ ]: non-standard residue; d: D form. The star is where a group is joined. Orn(4R-OH,5R-OH) = O=C([C@H](C[C@@H](O)[C@@H](O)N[*:3])N[*:1])[*:2]; hTyr(3S-OH,4S-OH) = N[C@H](C(=O)O)[C@H](O)[C@@H](O)c1ccc(O)cc1; Pro(3S-OH,4S-Me) = C[C@H]1CN[C@H](C(=O)O)[C@H]1O; Gln(3R-OH) = NC(=O)C[C@@H](O)[C@H](N)C(=O)O; Hyp = O=C(O)[C@@H]1C[C@@H](O)CN1; Myristoyl = CCCCCCCCCCCCCC(=O)*

Tests used:
Aspergillus fumigatus = experiment: MIC, series dilution test; assay type: cell-based; conditions: malt extract medium (2%), pH 5.2-5.4, 27° C., 48 to 72 hours
Procedure: (§1) The MIC (minimum inhibiting concentration) values are obtained in the well known series dilution test. The incubation was effected in a malt extract medium (2%) having a pH of 5.2-5.4 at 27° C. for 48 to 72 hours. The test strains are well known and have been deposited in the fungi collection of the firm Sandoz, Basel, where they are available for examination.

Aspergillus niger = experiment: MIC, series dilution test; assay type: cell-based; conditions: malt extract medium (2%), pH 5.2-5.4, 27° C., 48 to 72 hours
Procedure: as §1

Blastomyces dermatitidis = experiment: MIC, series dilution test; assay type: cell-based; conditions: malt extract medium (2%), pH 5.2-5.4, 27° C., 48 to 72 hours
Procedure: as §1

Candida albicans 439 = experiment: MIC, series dilution test; assay type: cell-based; conditions: malt extract medium (2%), pH 5.2-5.4, 27° C., 48 to 72 hours
Procedure: as §1

Candida albicans 5897 = experiment: MIC, series dilution test; assay type: cell-based; conditions: malt extract medium (2%), pH 5.2-5.4, 27° C., 48 to 72 hours
Procedure: as §1

[1] = tested on: Candida albicans Blast. res.; experiment: MIC, series dilution test; assay type: cell-based; conditions: malt extract medium (2%), pH 5.2-5.4, 27° C., 48 to 72 hours
Procedure: as §1

Candida albicans H 12 = experiment: MIC, series dilution test; assay type: cell-based; conditions: malt extract medium (2%), pH 5.2-5.4, 27° C., 48 to 72 hours
Procedure: as §1

Candida albicans = experiment: MIC, series dilution test; assay type: cell-based; conditions: malt extract medium (2%), pH 5.2-5.4, 27° C., 48 to 72 hours
Procedure: as §1

Candida krusei = experiment: MIC, series dilution test; assay type: cell-based; conditions: malt extract medium (2%), pH 5.2-5.4, 27° C., 48 to 72 hours
Procedure: as §1

Candida tropicalis CK 4 = experiment: MIC, series dilution test; assay type: cell-based; conditions: malt extract medium (2%), pH 5.2-5.4, 27° C., 48 to 72 hours
Procedure: as §1

Candida tropicalis = experiment: MIC, series dilution test; assay type: cell-based; conditions: malt extract medium (2%), pH 5.2-5.4, 27° C., 48 to 72 hours
Procedure: as §1

Curvularia lunata = experiment: MIC, series dilution test; assay type: cell-based; conditions: malt extract medium (2%), pH 5.2-5.4, 27° C., 48 to 72 hours
Procedure: as §1

Microsporum canis = experiment: MIC, series dilution test; assay type: cell-based; conditions: malt extract medium (2%), pH 5.2-5.4, 27° C., 48 to 72 hours
Procedure: as §1

Neurospora crassa = experiment: MIC, series dilution test; assay type: cell-based; conditions: malt extract medium (2%), pH 5.2-5.4, 27° C., 48 to 72 hours
Procedure: as §1

Sporotrichum schenkii = experiment: MIC, series dilution test; assay type: cell-based; conditions: malt extract medium (2%), pH 5.2-5.4, 27° C., 48 to 72 hours
Procedure: as §1

[2] = tested on: Trichophyton mentagrophytes; experiment: MIC, series dilution test; assay type: cell-based; conditions: malt extract medium (2%), pH 5.2-5.4, 27° C., 48 to 72 hours
Procedure: as §1

Trichophyton quinckeanum = experiment: MIC, series dilution test; assay type: cell-based; conditions: malt extract medium (2%), pH 5.2-5.4, 27° C., 48 to 72 hours
Procedure: as §1

[3] = tested on: usual gram-positive and gram-negative bacteria; experiment: activity spectrum, bacteria; assay type: cell-based
[4] = tested on: yeast and fungi, particularly Candida strains; experiment: activity spectrum, yeast and fungi; assay type: cell-based
Procedure: as §1

Solubility = assay type: physicochemical
Stability = assay type: physicochemical

Structure (SMILES): CCCCCCCCCCCCCC(=O)N[C@H]1C[C@@H](O)[C@@H](O)NC(=O)[C@@H]2[C@@H](O)[C@@H](C)CN2C(=O)[C@H]([C@H](O)CC(N)=O)NC(=O)[C@H]([C@H](O)[C@@H](O)c2ccc(O)cc2)NC(=O)[C@@H]2C[C@@H](O)CN2C(=O)[C@H]([C@@H](C)O)NC1=O [S 31794/F-1] (Myristoyl-[Orn(4R-OH,5R-OH)]T[Hyp][hTyr(3S-OH,4S-OH)][Gln(3R-OH)][Pro(3S-OH,4S-Me)]; lactam 1-C)
- MIC (minimum inhibiting concentration) (Aspergillus fumigatus): 32 µg/mL (≈ 30.4 µM)
- MIC (minimum inhibiting concentration) (Aspergillus niger): 100 µg/mL (≈ 95.1 µM)
- MIC (minimum inhibiting concentration) (Blastomyces dermatitidis): 100 µg/mL (≈ 95.1 µM)
- MIC (minimum inhibiting concentration) (Candida albicans 439): 0.03 µg/mL (≈ 0.0285 µM)
- MIC (minimum inhibiting concentration) (Candida albicans 5897): 0.3 µg/mL (≈ 0.285 µM)
- MIC (minimum inhibiting concentration) [1]: 0.03 µg/mL (≈ 0.0285 µM)
- MIC (minimum inhibiting concentration) (Candida albicans H 12): 0.3 µg/mL (≈ 0.285 µM)
- MIC (minimum inhibiting concentration) (Candida albicans): 0.3 µg/mL (≈ 0.285 µM)
- MIC (minimum inhibiting concentration) (Candida krusei): 1 µg/mL (≈ 0.951 µM)
- MIC (minimum inhibiting concentration) (Candida tropicalis CK 4): 0.01 µg/mL (≈ 0.00951 µM)
- MIC (minimum inhibiting concentration) (Candida tropicalis): 0.3 µg/mL (≈ 0.285 µM)
- MIC (minimum inhibiting concentration) (Curvularia lunata): > 100 µg/mL
- MIC (minimum inhibiting concentration) (Microsporum canis): 100 µg/mL (≈ 95.1 µM)
- MIC (minimum inhibiting concentration) (Neurospora crassa): > 100 µg/mL
- MIC (minimum inhibiting concentration) (Sporotrichum schenkii): > 100 µg/mL
- MIC (minimum inhibiting concentration) [2]: 32 µg/mL (≈ 30.4 µM)
- MIC (minimum inhibiting concentration) (Trichophyton quinckeanum): > 100 µg/mL
- effect against the usual gram-positive and gram-negative bacteria [3]: does not exhibit a significant effect
- effect against yeast and fungi, particularly against Candida strains [4]: pronounced effect
- Solubility (Solubility; in methanol, ethanol, pyridine and dimethyl sulphoxide): easily soluble
- Solubility (Solubility; in water, chloroform, ethyl acetate, diethyl ether, benzene and hexane): difficulty soluble
- Stability (Stability; alkaline or strong acidic conditions): decomposes, losing its anti-fungal activity
- Stability (Stability; aqueous methanol at pH 3-7.5): stable
